A word on the EC50: it is the concentration giving half of the maximal effect.

For one test, the system named is HBV. Put plainly: Viral load production from HepAD38 cells, qPCR of the HBV core sequence in supernatant. The format is cell-based. The conditions noted are these: HepAD38 cells, 5 days, HBV DNA in supernatant by qPCR; Table 1 ranges; read-out: Activity (viral load lowering EC50). Summed up:
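EC50 and CC50 come from four-parameter logistic fits of supernatant HBV core DNA (TaqMan qPCR, DNA standards, compared with DMSO wells) and of CellTiter-Glo luminescence.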
Background: In qPCR the cycle at which signal appears reflects the starting amount.
With `Cn1nc(C(F)(F)F)cc1NCC1(O)CC2CC(c3nn(C)c(N)c3C(=O)Nc3ccc(F)c(Cl)c3)CC2C1` (single isomer, unassigned) [Example 203B], the EC50 lay within 10 to 50 nM. On to `Cn1nc(C2CC3CC(O)(CNc4ncc(C(F)F)cn4)CC3C2)c(C(=O)Nc2ccc(F)c(Cl)c2)c1N` (single isomer, unassigned) [Example 202A], for which the EC50 lay within 10 to 50 nM.

The test is the same for the next values; noted with them: Hepatitis B virus, HePAD38, 120 h, HepAD38 cells, 5 days, HBV DNA in supernatant by qPCR; Table 1 ranges; read-out: Activity (viral load lowering EC50).
For `CNC(=O)NCC1CC2CC(c3nn(C)c(N)c3C(=O)Nc3ccc(F)c(Cl)c3)CC2C1` (centres unmarked) [Example 49, 5-Amino-N-(3-chloro-4-fluorophenyl)-1-methyl-3-(5-((3-methylureido)methyl)octahydropentalen-2-yl)-1H-pyrazole-4-carboxamide], the EC50 is < 10 nM. With `COC(=O)C12CCC(C(=O)NCC3CC4CC(c5nn(C)c(N)c5C(=O)Nc5ccc(F)c(Cl)c5)CC4C3)(CC1)CC2` (centres unmarked) [Example 77, Methyl 4-(((5-(5-amino-4-((3-chloro-4-fluorophenyl)carbamoyl)-1-methyl-1H-pyrazol-3-yl)octahydropentalen-2-yl)methyl)carbamoyl)bicyclo[2.2.2]octane-1-carboxylate], the EC50 lay within 50 to 500 nM. With `Cn1nc(C2CC3CC(CNC(=O)C4(C)CCC4)CC3C2)c(C(=O)Nc2ccc(F)c(Cl)c2)c1N` (centres unmarked) [Example 68, 5-Amino-N-(3-chloro-4-fluorophenyl)-1-methyl-3-(5-((1-methylcyclobutane-1-carboxamido)methyl)octahydropentalen-2-yl)-1H-pyrazole-4-carboxamide], the EC50 is < 10 nM. Still for that read-out and setting: in the case of `Cn1nc(C2CC3CC(O)(c4c[nH]nc4C(F)(F)F)CC3C2)c(C(=O)Nc2ccc(F)c(Cl)c2)c1N` (centres unmarked) [Example 156, 5-amino-N-(3-chloro-4-fluorophenyl)-3-(5-hydroxy-5-(3-(trifluoromethyl)-1H-pyrazol-4-yl)octahydropentalen-2-yl)-1-methyl-1H-pyrazole-4-carboxamide] it was < 10 nM; in that of `Cn1cc(C(F)(F)F)nc1C1(O)CC2CC(c3nn(C)c(N)c3C(=O)Nc3ccc(F)c(Cl)c3)CC2C1` (centres unmarked) [Example 163], 10 to 50 nM; in that of `Cc1cc(C2(O)CC3CC(c4nn(C)c(N)c4C(=O)Nc4ccc(F)c(Cl)c4)CC3C2)c(F)cn1` (centres unmarked) [Example 154], < 10 nM. Turning to `Cn1nc(C2CC3CC(O)(c4cc(Br)ncc4F)CC3C2)c(C(=O)Nc2ccc(F)c(Cl)c2)c1N` (centres unmarked) [Example 166], the EC50 was in the range of 10 to 50 nM.

In the case of `Cn1nc(C2CC3CC(CNC(=O)C4CCCC4)CC3C2)c(C(=O)Nc2ccc(F)c(Cl)c2)c1N` (centres unmarked) [Example 47, 5-Amino-N-(3-chloro-4-fluorophenyl)-3-(5-(cyclopentanecarboxamidomethyl)octahydropentalen-2-yl)-1-methyl-1H-pyrazole-4-carboxamide], the EC50 was < 10 nM.

For `COc1ccc(C2(O)CC3CC(c4nn(C)c(N)c4C(=O)Nc4ccc(F)c(Cl)c4)CC3C2)cc1` (centres unmarked) [Example 5, 5-Amino-N-(3-chloro-4-fluorophenyl)-3-(5-hydroxy-5-(4-methoxyphenyl)octahydropentalen-2-yl)-1-methyl-1H-pyrazole-4-carboxamide], the EC50 is < 10 nM. The same measure, in the same setting: in the case of `Cn1nc(C2CC3CN(C(=O)NCC4CC(F)(F)C4)CC3C2)c(C(=O)Nc2ccc(F)c(Cl)c2)c1N` (centres unmarked) [Example 126, 5-(5-Amino-4-((3-chloro-4-fluorophenyl)carbamoyl)-1-methyl-1H-pyrazol-3-yl)-N-((3,3-difluorocyclobutyl)methyl)-hexahydrocyclopenta[c]pyrrole-2(1H)-carboxamide] it was 50 to 500 nM; in that of `Cn1nc(C2CC3CC(CNC(=O)C45CC(C4)C5)CC3C2)c(C(=O)Nc2ccc(F)c(Cl)c2)c1N` (centres unmarked) [Example 69, 5-Amino-3-(5-((bicyclo[1.1.1]pentane-1-carboxamido)methyl)octahydropentalen-2-yl)-N-(3-chloro-4-fluorophenyl)-1-methyl-1H-pyrazole-4-carboxamide], < 10 nM; in that of `Cn1nc(C2CC3CC(O)(Cc4ncco4)CC3C2)c(C(=O)Nc2ccc(F)c(Cl)c2)c1N` (centres unmarked) [Example 181], < 10 nM. The same measure, in the same setting: the figure for `Cn1nc(C2CC3CC(CNS(=O)(=O)c4ccc(F)cc4F)CC3C2)c(C(=O)Nc2ccc(F)c(Cl)c2)c1N` (centres unmarked) [Example 85, 5-Amino-N-(3-chloro-4-fluorophenyl)-3-(5-(((2,4-difluorophenyl)sulfonamido)methyl)octahydropentalen-2-yl)-1-methyl-1H-pyrazole-4-carboxamide] is < 10 nM; for `Cn1nc(C2CC3CC(CNC(=O)C4CCNC(=O)C4)CC3C2)c(C(=O)Nc2ccc(F)c(Cl)c2)c1N` (centres unmarked) [Example 80, N-((5-(5-Amino-4-((3-chloro-4-fluorophenyl)carbamoyl)-1-methyl-1H-pyrazol-3-yl)octahydropentalen-2-yl)methyl)-2-oxopiperidine-4-carboxamide] it is 50 to 500 nM. Consider `Cn1ncnc1C1(O)CC2CC(c3nn(C)c(N)c3C(=O)Nc3ccc(F)c(Cl)c3)CC2C1` (centres unmarked) [Example 193], for which the EC50 is < 10 nM.

Consider `COC(=O)C1=CCN(C2CC3CC(c4nn(C)c(N)c4C(=O)Nc4ccc(F)c(Cl)c4)CC3C2)CC1` (centres unmarked) [Example 186], for which the EC50 was in the range of 50 to 500 nM. The same measure, in the same setting: the figure for `Cn1nc(C2CC3CC(CNC(=O)c4cncc(F)c4)CC3C2)c(C(=O)Nc2ccc(F)c(Cl)c2)c1N` (centres unmarked) [Example 61, N-((5-(5-Amino-4-((3-chloro-4-fluorophenyl)carbamoyl)-1-methyl-1H-pyrazol-3-yl)octahydropentalen-2-yl)methyl)-5-fluoronicotinamide] is < 10 nM.

In the case of `Cn1nc(C2CC3CC(O)(c4nn[nH]n4)CC3C2)c(C(=O)Nc2ccc(F)c(Cl)c2)c1N` (centres unmarked) [Example 171], the EC50 is > 500 nM. On the same count and under the same terms, in the case of `Cn1nc(C2CC3CN(C(=O)Nc4ncc(C(F)(F)F)s4)CC3C2)c(C(=O)Nc2ccc(F)c(Cl)c2)c1N` (centres unmarked) [Example 127, 5-(5-Amino-4-((3-chloro-4-fluorophenyl)carbamoyl)-1-methyl-1H-pyrazol-3-yl)-N-(5-(trifluoromethyl)thiazol-2-yl)hexahydrocyclopenta[c]pyrrole-2(1H)-carboxamide] it was 50 to 500 nM; in that of `Cn1nc(C2CC3CN(c4ncc(F)cn4)CC3C2)c(C(=O)Nc2ccc(F)c(Cl)c2)c1N` (centres unmarked) [Example 125, 5-Amino-N-(3-chloro-4-fluorophenyl)-3-(2-(5-fluoropyrimidin-2-yl)octahydrocyclopenta[c]pyrrol-5-yl)-1-methyl-1H-pyrazole-4-carboxamide], 10 to 50 nM. The same measure, in the same setting: the figure for `CCn1nc(N)cc1C1=CC2CC(c3nn(C)c(N)c3C(=O)Nc3ccc(F)c(Cl)c3)CC2C1` (centres unmarked) [Example 214] is < 10 nM.

With `Cn1nc(C2CC3CC(O)(c4sc(C(F)(F)F)nc4Br)CC3C2)c(C(=O)Nc2ccc(F)c(Cl)c2)c1N` (centres unmarked) [Example 151], the EC50 is 50 to 500 nM.

Regarding `Cn1nc(C2CC3CC(O)(c4cccnc4)CC3C2)c(C(=O)Nc2ccc(F)c(Cl)c2)c1N` (centres unmarked) [Example 15, 5-Amino-N-(3-chloro-4-fluorophenyl)-3-(5-hydroxy-5-(pyridin-3-yl)octahydropentalen-2-yl)-1-methyl-1H-pyrazole-4-carboxamide], the EC50 is < 10 nM. Take `Cn1nc(C(F)(F)F)cc1NCC1(O)CC2CC(c3nn(C)c(N)c3C(=O)Nc3ccc(F)c(Cl)c3)CC2C1` (single isomer, unassigned) [Example 203A]: the EC50 is < 10 nM. For `Cn1nc(C2CC3CC(CNC(=O)CCCN4CCCCC4)CC3C2)c(C(=O)Nc2ccc(F)c(Cl)c2)c1N` (centres unmarked) [Example 71, 5-Amino-N-(3-chloro-4-fluorophenyl)-1-methyl-3-(5-((4-(piperidin-1-yl)butanamido)methyl)octahydropentalen-2-yl)-1H-pyrazole-4-carboxamide], the EC50 lay in the range of 10 to 50 nM.

`Cn1nc(C(F)(F)F)c(C2(O)CC3CC(c4nn(C)c(N)c4C(=O)Nc4ccc(F)c(Cl)c4)CC3C2)n1` (centres unmarked) [Example 207]: the EC50 was < 10 nM.

`C[C@H](NC(=O)C1CC2CC(c3nn(C)c(N)c3C(=O)Nc3ccc(F)c(Cl)c3)CC2C1)C(F)(F)F` (single isomer, unassigned) [Example 103]: the EC50 lay within 10 to 50 nM.

On to `CC(C(F)(F)F)S(=O)(=O)NCC1CC2CC(c3nn(C)c(N)c3C(=O)Nc3ccc(F)c(Cl)c3)CC2C1` (centres unmarked) [Example 98, 5-Amino-N-(3-chloro-4-fluorophenyl)-1-methyl-3-(5-(((2,2,2-trifluoro-1-methylethyl)sulfonamido)methyl)octahydropentalen-2-yl)-1H-pyrazole-4-carboxamide], for which the EC50 was in the range of 10 to 50 nM.

Consider `CC(n1cccn1)C1(O)CC2CC(c3nn(C)c(N)c3C(=O)Nc3ccc(F)c(Cl)c3)CC2C1` (centres unmarked) [Example 199], for which the EC50 is < 10 nM. Same read-out and setting: in the case of `Cn1cc(C2(O)CC3CC(c4nn(C)c(N)c4C(=O)Nc4ccc(F)c(Cl)c4)CC3C2)c(C(F)(F)F)n1` (centres unmarked) [Example 220] it was < 10 nM.

Still in this test, the particulars now being: Hepatitis B virus, HePAD38, 120 h, HepAD38 cells, 5 days, HBV DNA in supernatant by qPCR; Table 2 ranges; read-out: VL HepAD38 EC50 range.
In the case of `Cn1nc(C2CC3CC(c4ccccc4)C(O)C3C2)c(C(=O)Nc2ccc(F)c(Cl)c2)c1N` (single isomer, unassigned) [Example 145, 5-Amino-N-(3-chloro-4-fluorophenyl)-3-(4-hydroxy-5-phenyloctahydropentalen-2-yl)-1-methyl-1H-pyrazole-4-carboxamide], the concentration for a half-maximal effect (EC50) was < 100 nM.

Staying with this test, now noted: Hepatitis B virus, HePAD38, 120 h, read-out: Activity (viral load lowering EC50), HepAD38 cells, 5 days, HBV DNA in supernatant by qPCR; Table 1 ranges.
For the compound `Cn1nc(C2CC3CC(O)(c4cn(COP(=O)(O)OC(C)(C)C)nc4C(F)(F)F)CC3C2)c(C(=O)Nc2ccc(F)c(Cl)c2)c1N` (centres unmarked) [Cpmpd. 6-2, (4-(5-(5-amino-4-((3-chloro-4-fluorophenyl)carbamoyl)-1-methyl-1H-pyrazol-3-yl)-2-hydroxyoctahydropentalen-2-yl)-3-(trifluoromethyl)-1H-pyrazol-1-yl)methyl tert-butyl hydrogen phosphate], the EC50 lay in the range of 10 to 50 nM. Still for that read-out and setting: the figure for `Cn1nc(C2CC3CC(O)(Cc4ccc(S(C)(=O)=O)cn4)CC3C2)c(C(=O)Nc2ccc(F)c(Cl)c2)c1N` (centres unmarked) [Exmaple 165] is < 10 nM.

For the origin of these results see patent US20230295096A1, “PYRAZOLE CARBOXAMIDE COMPOUNDS FOR TREATMENT OF HBV” (ASSEMBLY BIOSCIENCES, INC., priority 2020, published 2023).
